From patent US20220401514A1, “ANTIMICROBIAL, BACTERIOPHAGE-DERIVED POLYPEPTIDES AND THEIR USE AGAINST GRAM-NEGATIVE AND ACID-FAST BACTERIA” (CONTRAFECT CORPORATION, priority 2019, published 2022)
Like-named read-outs stand apart in the source and are kept apart here.

Experiments:
Klebsiella pneumoniae [1] = assay type: cell-based
Method: (§1) Determination of Minimal Inhibitory Concentrations (MIC).
Additional MIC testing was performed for several peptides against the ESKAPE pathogens Escherichia coli, Enterobacter cloacae, Klebsiella pneumoniae, and Acinetobacter baumannii, in CAA supplemented with human serum (Table D).

[2] = system: carbapenem-resistant bacterial strains; experiment: organism not typed; assay type: cell-based
From the text: as §1

Salmonella typhimurium = experiment: MIC against Salmonella typhimurium; assay type: cell-based
[3] = Stability assessment in 100% CAA; assay type: in vitro ADME; parameters: unit not given beside the values
Method: Stability was assessed after incubation in 100% human serum at 37° C. after 10 minutes, 1 hour, and 2 hours.
Stability assessment was further conducted in 100% CAA and rabbit serum using the same methodology discussed above.

[4] = system: P. aeruginosa strain CFS-1292; experiment: MIC at pH 6, pH 7 and pH 8; assay type: cell-based, Pseudomonas aeruginosa
Method: The Chp peptides were further evaluated at varying pH levels. The MIC values were determined at pH 6, pH 7, and pH 8 for 18 different Chp peptides against P. aeruginosa strain CFS-1292. […]

Acinetobacter baumannii = experiment: microbe, parasite or virus in culture; assay type: cell-based
[5] = system: P. aeruginosa strain CFS-1292; experiment: MIC in presence and absence of NaCl (140 mM); assay type: cell-based, Pseudomonas aeruginosa
Method: Certain Chp peptides were evaluated over a range of physiological NaCl levels and pH values, and were further evaluated for activity in the presence of various divalent cations.

Pseudomonas aeruginosa = experiment: microbe, parasite or virus in culture; assay type: cell-based; conditions: for MIC: CAA without human serum
M. smegmatis = experiment: 45 hr MIC against M. smegmatis (NTM), Mueller Hinton broth; assay type: cell-based, Mycobacterium smegmatis; conditions: M. smegmatis MC^2 155, Run #1
Klebsiella pneumoniae [6] = experiment: microbe, parasite or virus in culture; assay type: cell-based; conditions: CAA without human serum
S. maltophilia = experiment: MIC against S. maltophilia isolates; assay type: cell-based, Stenotrophomonas maltophilia; conditions: S. maltophilia isolates (n per peptide in table)
Method in brief: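 Chp peptides were tested on a set of S. maltophilia isolates (n = isolates per species), with minimal inhibitory concentrations given in μg/mL.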

[7] = system: carbapenem-resistant P. aeruginosa clinical isolate CFS-1292; experiment: MIC by modified CLSI broth microdilution against P. aeruginosa CFS-1292 (CAA, CAA + human serum); assay type: cell-based, Pseudomonas aeruginosa; conditions: 100% CAA; 1st run or single value
[8] = system: P. aeruginosa strain CFS-1292; experiment: MIC in presence of divalent cations (calcium chloride, magnesium sulfate); assay type: cell-based, Pseudomonas aeruginosa
Method: Next, Chp peptides were evaluated in the presence of different divalent cations. […]; (2) in the presence of 2 mM calcium chloride alone; (3) in the presence of 1 mM magnesium sulfate alone; and (4) in the presence of both 2 mM calcium chloride and 1 mM magnesium sulfate. […]

[9] = system: P. aeruginosa strain CFS-1292; experiment: MIC in presence and absence of Survanta pulmonary surfactant; assay type: cell-based, Pseudomonas aeruginosa
Escherichia coli = experiment: microbe, parasite or virus in culture; assay type: cell-based
Method in brief: (§2)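 Read-out is the minimal inhibitory concentration of each peptide, measured in serum-supplemented CAA.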

Enterobacter cloacae = experiment: microbe, parasite or virus in culture; assay type: cell-based
Method in brief: as §2

[10] = K. pneumoniae isolates (n per peptide in table)
[11] = A. baumannii isolates (n per peptide in table)
[12] = P. aeruginosa isolates (n per peptide in table)
[13] = E. coli isolates (n per peptide in table)
[14] = E. cloacae isolates (n per peptide in table)

With “MARSRRRMSKRSSRRSFRKYAKTHKRNFKARSMRGGIRL [Ecp1]” as the sequence, how does the MIC50 (Klebsiella pneumoniae [1]; [10]) read?
The MIC50 was 1 µg/mL.

And the MIC100 (Klebsiella pneumoniae [1]; [10])?
The MIC100 was 2 µg/mL.

And the “MIC Range” value (Klebsiella pneumoniae [1]; [10])?
The value was 1 to 2 µg/mL.

And the MIC (Klebsiella pneumoniae [1]; Klebsiella pneumoniae HM-44, CAA supplemented with human serum)?
The MIC was 0.5 µg/mL.

What about the MIC ([2]; carbapenem-resistant isolate PA19) of the same sequence?
The MIC was 1 µg/mL.

What about the MIC ([2]; carbapenem-resistant isolate PA20) of the same sequence?
The MIC was greater than 8 µg/mL.

And the MIC ([2]; carbapenem-resistant isolate PA21)?
Its MIC is greater than 8 µg/mL.

And the MIC ([2]; carbapenem-resistant isolate PA22)?
The MIC was 8 µg/mL.

What about the MIC ([2]; carbapenem-resistant isolate PA23) of the same sequence?
The MIC was 4 µg/mL.

What about the MIC ([2]; carbapenem-resistant isolate PA24) of the same sequence?
Its MIC is 4 µg/mL.

And the MIC ([2]; carbapenem-resistant isolate WLC-452)?
Its MIC is 2 µg/mL.

What about the MIC (Salmonella typhimurium; Salmonella typhimurium) of the same sequence?
Its MIC is 2 µg/mL.

What about the MIC (Salmonella typhimurium; Salmonella typhimurium LT2 (lab isolate), RSC 27, CAA without human serum) of the same sequence?
Its MIC is 2 µg/mL.

And the “MIC (100% CAA)” value [3]?
The value was 0.25.

What about the MIC ([4]; CAA media (pH 7)) of the same sequence?
The MIC was 0.5 µg/mL.

And the MIC ([4]; pH 6)?
Its MIC is 1 µg/mL.

What about the MIC ([4]; pH 7) of the same sequence?
Its MIC is 1 µg/mL.

What about the MIC ([4]; pH 8) of the same sequence?
Its MIC is 1 µg/mL.

What about the MIC50 (Acinetobacter baumannii; [11]) of the same sequence?
The MIC50 was 0.5 µg/mL.

What about the MIC100 (Acinetobacter baumannii; [11]) of the same sequence?
The MIC100 was 1 µg/mL.

What about the “MIC Range” value (Acinetobacter baumannii; [11]) of the same sequence?
The value was 0.125 to 2 µg/mL.

And the MIC (Acinetobacter baumannii; Acinetobacter baumannii (clinical isolate HSS), RSC 30, CAA without human serum)?
The MIC was 2 µg/mL.

What about the MIC (Acinetobacter baumannii; Acinetobacter baumannii (clinical isolate HSS), RSC 32, CAA without human serum) of the same sequence?
The MIC was 2 µg/mL.

What about the MIC (Acinetobacter baumannii; Acinetobacter baumannii ATCC BAA 747, CAA supplemented with human serum) of the same sequence?
Its MIC is 1 µg/mL.

What about the “Fold change in MIC” value ([5]; CAA + 140 mM NaCl versus CAA without added NaCl) of the same sequence?
The value was 4.

And the MIC, CAA + 140 mM NaCl ([5]; CAA + 140 mM NaCl, P. aeruginosa CFS-1292)?
Its MIC, CAA + 140 mM NaCl is 2 µg/mL.

And the MIC, CAA (no added NaCl) ([5]; CAA, no added NaCl, P. aeruginosa CFS-1292)?
The MIC, CAA (no added NaCl) was 0.5 µg/mL.

And the MIC (Pseudomonas aeruginosa; P. aeruginosa 453 (Human clinical isolate, HSS), RSC 1292)?
The MIC was 2 µg/mL.

What about the MIC (Pseudomonas aeruginosa; P. aeruginosa (ATCC 14213, human hip wound), RSC 1111) of the same sequence?
Its MIC is 2 µg/mL.

And the MIC (Pseudomonas aeruginosa; P. aeruginosa (ATCC 15152, abscess in middle ear), RSC 1110)?
The MIC was 1 µg/mL.

What about the MIC (Pseudomonas aeruginosa; P. aeruginosa (ATCC 15692, infected wound), RSC 489) of the same sequence?
The MIC was 2 µg/mL.

And the MIC (Pseudomonas aeruginosa; P. aeruginosa (ATCC 15692, infected wound), RSC 1115)?
The MIC was 2 µg/mL.

And the MIC (Pseudomonas aeruginosa; P. aeruginosa (ATCC 17646, human liver abscess), RSC 1109)?
The MIC was 2 µg/mL.

And the MIC (Pseudomonas aeruginosa; P. aeruginosa (ATCC 19142, tracheobronchial secretion), RSC 1108)?
The MIC was 1 µg/mL.

And the MIC (Pseudomonas aeruginosa; P. aeruginosa (ATCC 25102, bacteriophage host), RSC 1114)?
Its MIC is 2 µg/mL.

And the MIC (Pseudomonas aeruginosa; P. aeruginosa (ATCC 27853, MIC control strain), RSC 815)?
Its MIC is 2 µg/mL.

And the MIC (Pseudomonas aeruginosa; P. aeruginosa (ATCC BAA-27, lab strain), RSC 1113)?
The MIC was 4 µg/mL.

And the MIC (Pseudomonas aeruginosa; P. aeruginosa (PAO1, alternate source, HER1018), RSC 490)?
The MIC was 2 µg/mL.

And the MIC50 (Pseudomonas aeruginosa; [12])?
The MIC50 was 4 µg/mL.

What about the MIC100 (Pseudomonas aeruginosa; [12]) of the same sequence?
Its MIC100 is greater than 8 µg/mL.

And the “45 hr MIC” value (M. smegmatis)?
The value was 4 µg/mL.

What about the MIC (Klebsiella pneumoniae [6]; Klebsiella pneumoniae (ATCC 10031, MIC control strain), RSC 814) of the same sequence?
The MIC was 2 µg/mL.

What about the MIC (Klebsiella pneumoniae [6]; Klebsiella pneumoniae (g2-3 HM35K), RSC 1138) of the same sequence?
The MIC was 2 µg/mL.

What about the MIC (Klebsiella pneumoniae [6]; Klebsiella sp. (HM-44; colon, Crohn's disease), RSC 1139) of the same sequence?
Its MIC is 2 µg/mL.

What about the MIC (Klebsiella pneumoniae [6]; Klebsiella spp. (HM-223; gut of Crohn's disease patient), RSC 1131) of the same sequence?
The MIC was 2 µg/mL.

What about the MIC50 (S. maltophilia) of the same sequence?
Its MIC50 is 8 µg/mL.

What about the MIC100 (S. maltophilia) of the same sequence?
The MIC100 was greater than 8 µg/mL.

What about the “MIC (μg/mL) against CFS-1292 in 100% CAA (1st run/2nd run)” value [7] of the same sequence?
The value was 0.5 µg/mL.

What about the MIC ([8]; CAA media + 1 mM MgSO4) of the same sequence?
The MIC was 0.5 µg/mL.

And the MIC ([8]; CAA media + 2 mM CaCl2)?
The MIC was 1 µg/mL.

What about the MIC ([8]; CAA media + + 1 mM MgSO4) of the same sequence?
The MIC was 1 µg/mL.

What about the MIC ([8]; CAA media alone) of the same sequence?
Its MIC is 0.5 µg/mL.

What about the MIC ([9]; CAA media + 0.19 mg/mL Survanta) of the same sequence?
Its MIC is 0.5 µg/mL.

And the MIC ([9]; CAA media + […] Survanta)?
Its MIC is 0.5 µg/mL.

And the MIC ([9]; CAA media alone)?
The MIC was 0.5 µg/mL.

And the MIC (Escherichia coli; E. coli (ATCC 25922, MIC control strain), RSC 813, CAA without human serum)?
The MIC was 2 µg/mL.

And the MIC (Escherichia coli; E. coli (HM346, colon, Crohn's disease), RSC 1212, CAA without human serum)?
Its MIC is 2 µg/mL.

What about the MIC50 (Escherichia coli; [13]) of the same sequence?
Its MIC50 is 0.5 µg/mL.

And the MIC100 (Escherichia coli; [13])?
Its MIC100 is 2 µg/mL.

And the “MIC Range” value (Escherichia coli; [13])?
Its value is 0.25 to 4 µg/mL.

And the MIC (Escherichia coli; Escherichia coli ATCC 25922, CAA supplemented with human serum)?
The MIC was 0.25 µg/mL.

What about the MIC50 (Enterobacter cloacae; [14]) of the same sequence?
The MIC50 was 0.5 µg/mL.

And the MIC100 (Enterobacter cloacae; [14])?
Its MIC100 is 2 µg/mL.

And the “MIC Range” value (Enterobacter cloacae; [14])?
The value was 0.25 to 4 µg/mL.

What about the MIC (Enterobacter cloacae; Enterobacter cloacae (ATCC 13047, MIC control strain), RSC 1240, CAA without human serum) of the same sequence?
The MIC was 2 µg/mL.

What about the MIC (Enterobacter cloacae; Enterobacter cloacae ATCC 13047, CAA supplemented with human serum) of the same sequence?
Its MIC is 16 µg/mL.
